Data reported in US20140005197A1, “INHIBITORS OF INFLUENZA VIRUSES REPLICATION” (Vertex Pharmaceuticals Incorporated, priority 2010, published 2014).
Like-named read-outs stand apart in the source and are kept apart here.

Key:
[1] = system: influenza A virus (A/PR/8/34); experiment: microbe, parasite or virus in culture; assay type: cell-based
influenza A virus = experiment: microbe, parasite or virus in culture; assay type: cell-based
influenza = experiment: Influenza Therapeutic Mouse Model; assay type: in vivo; conditions: Balb/c mice, 30 mg/kg BID × 10 days, dosing @ 48 hours post infection
[2] = viral RNA 50% of control wells, 18-36 hours, mean all, read-out: bDNA EC50
[3] = Influenza A virus, PR/8, MDCK, 72 h, read-out: Flu, MDCK IC50
[4] = Influenza A virus, viral RNA 50% of control wells, 18-36 hours, mean all, read-out: bDNA EC50
[5] = Influenza A virus, PR/8, MDCK, MDCK cells, A/PR/8/34, CPE assay, read-out: IC50
[6] = Influenza A virus, bDNA viral RNA assay, read-out: EC50

SMILES | IC50 [1, 3] [µM] | EC50 (influenza A virus; [4]) [µM] | further results
O=C(O)[C@H]1C2CCC(CC2)[C@@H]1Nc1nc(-c2n[nH]c3ncc(F)cc23)ccc1F [Compound I-11, (2S,3S)-3-(3-fluoro-6-(5-fluoro-1H-pyrazolo[3,4-b]pyridin-3-yl)pyridin-2-ylamino)bicyclo[2.2.2]octane-2-carboxylic acid] | – | – | IC50 ([1]; read-out: Flu, MDCK IC50): < 3.3 µM; EC50 (influenza A virus; [2]): < 3.3 µM
O=C(O)[C@@H]1CCC[C@H](Nc2nc(-c3n[nH]c4ncc(F)cc34)c(F)cc2F)C1 [Compound I-2, (1R,3S)-3-(3,5-difluoro-6-(5-fluoro-1H-pyrazolo[3,4-b]pyridin-3-yl)pyridin-2-ylamino)cyclohexanecarboxylic acid] | < 3.3 | < 3.3 | –
O=C(N[C@@H]1CCC[C@H](Nc2nc(-c3n[nH]c4ncc(F)cc34)c(F)cc2F)C1)c1csc(Cl)c1 [Compound I-18, 5-chloro-N-((1R,3S)-3-((3,5-difluoro-6-(5-fluoro-1H-pyrazolo[3,4-b]pyridin-3-yl)pyridin-2-yl)amino)cyclohexyl)thiophene-3-carboxamide] | < 3.3 | < 3.3 | –
O=C(O)[C@@H]1C2CCC(CC2)[C@H]1Nc1nc(-c2n[nH]c3ncc(F)cc23)ccc1F [Compound I-10] | – | < 3.3 | –
O=C(N[C@@H]1CCC[C@H](Nc2nc(-c3n[nH]c4ncc(F)cc34)c(F)cc2F)C1)c1ccsc1 [Compound I-19, N-((1R,3S)-3-((3,5-difluoro-6-(5-fluoro-1H-pyrazolo[3,4-b]pyridin-3-yl)pyridin-2-yl)amino)cyclohexyl)thiophene-3-carboxamide] | < 3.3 | < 3.3 | –
O=C(O)[C@H]1C2CCC(CC2)[C@@H]1Nc1nc(-c2n[nH]c3ncc(Cl)cc23)c(F)cc1F (racemic) [Compound I-6, (2S,3S)-3-((6-(5-chloro-1H-pyrazolo[3,4-b]pyridin-3-yl)-3,5-difluoropyridin-2-yl)-amino)bicyclo[2.2.2]octane-2-carboxylate] | < 3.3 | < 3.3 | –
N#Cc1cc(F)c(N[C@H]2C3CCC(CC3)[C@@H]2C(=O)O)nc1-c1n[nH]c2ncc(F)cc12 (racemic) [Compound I-12] | < 3.3 | < 3.3 | –
O=C(O)[C@H]1C2CCC(CC2)[C@@H]1Nc1nc(-c2n[nH]c3ncc(F)cc23)c(F)cc1F [Compound I-8, sodium (2S,3S)-3-(3,5-difluoro-6-(5-fluoro-1H-pyrazolo[3,4-b]pyridin-3-yl)pyridin-2-ylamino)bicyclo[2.2.2]octane-2-carboxylate] | – | – | IC50 [1, 5]: 3.57 µM; EC50 (influenza A virus; [6]): 0.007 µM; EC50 (influenza A virus; [2]): < 3.3 µM; WBP (Penh; Day 6) (influenza; Whole Body Plethysmography, study day 6/7): 2.03; Percent Weight Loss (Day 8) (influenza; post challenge day 8): 20.8%; Percent Survival (influenza; survival scored for 21 days): 100%
O=C(O)[C@H]1C2CCC(CC2)[C@@H]1Nc1nc(-c2n[nH]c3ncc(F)cc23)ccc1F (stereo in doubt) [Compound I-7] | < 3.3 | < 3.3 | –
O=C(O)[C@H]1C2CCC(CC2)[C@@H]1Nc1cncc(-c2n[nH]c3ncc(F)cc23)n1 (racemic) [Compound I-9, (+/−)-trans-(2,3)-3-((6-(5-fluoro-1H-pyrazolo[3,4-b]pyridin-3-yl)pyrazin-2-yl)amino)bicyclo[2.2.2]octane-2-carboxylic acid] | < 3.3 | < 3.3 | IC50 [1, 5]: 0.017 µM; EC50 (influenza A virus; [6]): 0.034 µM
O=C(O)[C@H]1C2CCC(CC2)[C@@H]1Nc1nc(-c2n[nH]c3ncc(F)cc23)c(F)cc1F (stereo in doubt) [Compound I-5] | < 3.3 | < 3.3 | –
N#Cc1cc(F)c(N[C@H]2C3CCC(CC3)[C@@H]2C(=O)O)nc1-c1n[nH]c2ncc(F)cc12 [Compound I-15, (2S,3S)-3-((5-cyano-3-fluoro-6-(5-fluoro-1H-pyrazolo[3,4-b]pyridin-3-yl)pyridin-2-yl)amino)bicyclo[2.2.2]octane-2-carboxylic acid] | < 3.3 | < 3.3 | –
N#Cc1cc(F)c(N[C@H]2C3CCC(CC3)[C@@H]2C(=O)O)cc1-c1n[nH]c2ncc(F)cc12 [Compound I-20] | – | – | IC50 ([1]; read-out: Flu, MDCK IC50): < 3.3 µM; EC50 (influenza A virus; [2]): < 3.3 µM
CCOC(=O)[C@@H]1CCC[C@H](Nc2nc(-c3n[nH]c4ncc(F)cc34)c(F)cc2F)C1 [Compound I-1, (1R,3S)-ethyl 3-(3,5-difluoro-6-(5-fluoro-1H-pyrazolo[3,4-b]pyridin-3-yl)pyridin-2-ylamino)cyclohexanecarboxylate] | < 3.3 | < 3.3 | –
O=C(O)C1C2CCC(CC2)C1Nc1cnnc(-c2n[nH]c3ncc(F)cc23)n1 (racemic) [Compound I-17, (+/−)-trans-3-((3-(5-fluoro-1H-pyrazolo[3,4-b]pyridin-3-yl)-1,2,4-triazin-5-yl)amino)bicyclo[2.2.2]octane-2-carboxylic acid] | < 3.3 | < 3.3 | –
N#Cc1cc(F)c(N[C@@H]2C3CCC(CC3)[C@H]2C(=O)O)nc1-c1n[nH]c2ncc(F)cc12 [Compound I-16] | < 3.3 | < 3.3 | –
N#Cc1cc(F)c(NC2C3CCC(CC3)C2C(=O)O)cc1-c1n[nH]c2ncc(F)cc12 (racemic) [Compound I-21, (+/−)-trans-3-((4-cyano-2-fluoro-5-(5-fluoro-1H-pyrazolo[3,4-b]pyridin-3-yl)phenyl)amino)bicyclo[2.2.2]octane-2-carboxylic acid] | < 3.3 | < 3.3 | –
Cn1cnc(C(=O)N[C@@H]2CCC[C@H](Nc3nc(-c4n[nH]c5ncc(F)cc45)c(F)cc3F)C2)c1 [Compound I-3, N-((1R,3S)-3-(3,5-difluoro-6-(5-fluoro-1H-pyrazolo[3,4-b]pyridin-3-yl)pyridin-2-ylamino)cyclohexyl)-1-methyl-1H-imidazole-4-carboxamide] | < 3.3 | < 3.3 | –
O=C(O)[C@@H]1C2CCC(CC2)[C@H]1Nc1cncc(-c2n[nH]c3ncc(F)cc23)n1 [Compound I-13, (2R,3R)-3-((6-(5-fluoro-1H-pyrazolo[3,4-b]pyridin-3-yl)pyrazin-2-yl)amino)bicyclo-[2.2.2]octane-2-carboxylic acid] | < 3.3 | < 3.3 | –
O=C(O)[C@H]1C2CCC(CC2)[C@@H]1Nc1cncc(-c2n[nH]c3ncc(F)cc23)n1 [Compound I-14, (2S,3S)-3-((6-(5-fluoro-1H-pyrazolo[3,4-b]pyridin-3-yl)pyrazin-2-yl)amino)bicyclo-[2.2.2]octane-2-carboxylic acid] | < 3.3 | < 3.3 | –
